Experimental findings from patent publication US20260234147A1 (priority 2023, published 2026) are described below.

Series [1] concerns the target T1, hMOR (Homo sapiens, UniProt P35372). As to the kind of experiment: Radioligand binding assay (Eurofins Cerep), [3H]DAMGO displacement. The note with it: read-out: MOR Ki ± SEM.
A further series addresses hKOR (Homo sapiens, UniProt P41145). The series is described as follows: Radioligand binding assay (Eurofins Cerep), [3H]U69,593 displacement. Conditions: read-out: KOR Ki ± SEM.
The target of the next series is hDOR (Homo sapiens, UniProt P41143). As to the kind of experiment: Radioligand binding assay (Eurofins Cerep), [3H]DADLE displacement. Conditions: DOR Ki ± SEM (nM).
For a further series, the target named is T2, α2A adrenergic receptor (Homo sapiens, UniProt P08913).
T2 construct: Eurofins Cerep (contract screening)
T2 sequence (P08913 1-465): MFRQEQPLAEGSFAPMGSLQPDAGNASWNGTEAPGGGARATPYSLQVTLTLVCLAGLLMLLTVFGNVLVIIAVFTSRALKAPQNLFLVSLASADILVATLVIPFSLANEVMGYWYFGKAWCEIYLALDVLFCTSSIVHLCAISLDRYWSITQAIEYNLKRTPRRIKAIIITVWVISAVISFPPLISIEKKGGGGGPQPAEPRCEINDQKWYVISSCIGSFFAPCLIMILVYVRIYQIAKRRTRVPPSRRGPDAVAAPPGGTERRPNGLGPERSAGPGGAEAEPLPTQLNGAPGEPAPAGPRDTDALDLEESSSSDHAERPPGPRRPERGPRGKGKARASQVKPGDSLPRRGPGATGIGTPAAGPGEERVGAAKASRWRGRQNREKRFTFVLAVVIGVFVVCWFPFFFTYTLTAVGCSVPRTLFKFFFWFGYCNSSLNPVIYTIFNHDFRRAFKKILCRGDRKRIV
As to the kind of experiment: Radioligand binding assay (Eurofins Cerep), [3H]RX 821002 displacement. The note with it: Alpha2A Ki ± SEM (nM).

In the next series the target is T3, α2C adrenergic receptor (Homo sapiens, UniProt P18825).
T3 construct: Eurofins Cerep (contract screening)
T3 sequence (P18825 1-462): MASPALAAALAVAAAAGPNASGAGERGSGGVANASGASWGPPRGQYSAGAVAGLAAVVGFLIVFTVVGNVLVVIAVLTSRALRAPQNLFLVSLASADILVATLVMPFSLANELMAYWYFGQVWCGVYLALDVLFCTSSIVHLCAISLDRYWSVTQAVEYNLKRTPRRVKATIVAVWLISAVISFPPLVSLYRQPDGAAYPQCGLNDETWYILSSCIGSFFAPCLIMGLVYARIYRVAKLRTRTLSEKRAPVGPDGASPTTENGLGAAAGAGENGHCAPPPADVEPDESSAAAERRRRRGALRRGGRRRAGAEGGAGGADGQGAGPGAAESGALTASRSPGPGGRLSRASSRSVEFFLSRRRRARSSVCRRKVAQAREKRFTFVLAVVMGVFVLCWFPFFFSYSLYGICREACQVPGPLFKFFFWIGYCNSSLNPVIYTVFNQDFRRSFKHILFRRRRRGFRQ
The series is described as above. The note with it: Table A1, data summary #1; read-out: Alpha2C Ki ± SEM.

Series [2] can be described thus: Metabolic stability in rat liver microsomes. The format is in vitro ADME. The method in brief:
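Compounds at 1 μM were incubated in triplicate with rat liver microsomes (1 mg protein/ml) and 1 mM NADPH in 50 mM phosphate buffer pH 7.4 at 37 °C. Samples taken up to 60 min were analysed by UPLC-MS/MS. Intrinsic clearance came from substrate-depletion half-life and was scaled to hepatic CLint using 45 mg/g MPPGL and 40 g/kg liver.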

The target in series [3] is T1, hMOR. The series is described as follows: Cyclic adenosine 3′,5′-monophosphate (cAMP) assay in hMOR-CHO cells. The series is classed as cell-based. The note with it: N=1, control agonist DAMGO.
The target in series [4] is T1, hMOR. As to the kind of experiment: cell-based. Conditions: for Emax: CHO. On the set-up: expressed in transfected cells.

Where two headings read alike, the source gives them in different places.

T1 sequence (P35372 whole entry): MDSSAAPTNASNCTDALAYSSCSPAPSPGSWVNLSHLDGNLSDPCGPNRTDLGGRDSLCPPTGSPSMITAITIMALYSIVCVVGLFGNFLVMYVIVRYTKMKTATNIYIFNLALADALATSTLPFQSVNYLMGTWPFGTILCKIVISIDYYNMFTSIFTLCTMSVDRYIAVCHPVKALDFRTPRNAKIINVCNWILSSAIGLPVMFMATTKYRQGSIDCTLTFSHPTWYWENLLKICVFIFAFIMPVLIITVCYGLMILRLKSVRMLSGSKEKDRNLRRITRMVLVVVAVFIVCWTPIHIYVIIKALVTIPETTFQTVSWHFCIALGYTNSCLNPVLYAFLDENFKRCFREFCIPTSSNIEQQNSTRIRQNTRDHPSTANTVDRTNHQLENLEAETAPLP
Sequence of hDOR (P41143 whole entry): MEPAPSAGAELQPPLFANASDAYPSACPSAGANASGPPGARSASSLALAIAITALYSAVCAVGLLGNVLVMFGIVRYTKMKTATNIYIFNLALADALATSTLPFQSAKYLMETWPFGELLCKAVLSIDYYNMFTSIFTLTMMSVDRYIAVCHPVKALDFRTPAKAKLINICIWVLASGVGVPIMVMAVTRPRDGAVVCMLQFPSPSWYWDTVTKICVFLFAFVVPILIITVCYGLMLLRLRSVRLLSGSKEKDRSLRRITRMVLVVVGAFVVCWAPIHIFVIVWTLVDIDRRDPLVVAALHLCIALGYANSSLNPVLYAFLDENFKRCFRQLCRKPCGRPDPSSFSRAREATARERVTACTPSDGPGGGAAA
Sequence of hKOR (P41145 whole entry): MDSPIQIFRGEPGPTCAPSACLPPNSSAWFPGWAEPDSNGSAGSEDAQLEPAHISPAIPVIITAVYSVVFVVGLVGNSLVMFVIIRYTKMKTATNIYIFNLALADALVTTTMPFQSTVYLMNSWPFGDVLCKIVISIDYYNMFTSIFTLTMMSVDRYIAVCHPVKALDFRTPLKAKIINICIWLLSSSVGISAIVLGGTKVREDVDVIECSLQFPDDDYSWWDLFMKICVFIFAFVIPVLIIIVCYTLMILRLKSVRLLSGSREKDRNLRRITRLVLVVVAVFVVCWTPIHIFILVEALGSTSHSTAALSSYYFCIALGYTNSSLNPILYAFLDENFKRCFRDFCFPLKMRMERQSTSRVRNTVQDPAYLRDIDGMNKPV

In the case of `CC[C@@H]1CN2CCc3c([nH]c4cccc(OC)c34)[C@@H]2C[C@@H]1/C(=C\OC)C(=O)N(C)C` [SUSM-501, (E)-2-((2S,3S,12bS)-3-ethyl-8-methoxy-1,2,3,4,6,7,12,12b-octahydroindolo[2,3-a]quinolizin-2-yl)-3-methoxy-N,N-dimethylacrylamide], the inhibition constant (Ki) was 0.429 ± 0.0757 µM on hMOR [1] (Table A1, data summary #1); 0.429 ± 0.0757 µM on hMOR [1] (Table A4, data summary #2); 3.07 ± 0.569 µM at hKOR (Table A1, data summary #1); 3.07 ± 0.569 µM on hKOR (Table A4, data summary #2); 6490 ± 3030 nM on hDOR (Table A1, data summary #1); 6490 ± 3030 nM at hDOR (Table A4, data summary #2). Also, the Ki at α2A adrenergic receptor (Table A1, data summary #1) stood at 1810 ± 319 nM; at α2A adrenergic receptor (Table A4, data summary #2), 1810 ± 319 nM; on α2C adrenergic receptor it was 0.42 ± 0.113 µM. The “Whole liver clearance, CL int, H” value in series [2] (in vitro intrinsic clearance in RLM scaled to whole organ (rat)) was determined as 128.8 mL/min/kg. Moreover, the “RLM stability” value in series [2] (rat liver microsomes 1 mg/ml, substrate 1 μM, NADPH, 37° C.) was found to be 6 min. Besides, the entries for the “functional activity in cAMP assay” value at hMOR [3] and on hMOR [3] (listed as SUSM 501) were “partial agonist activity” and “partial agonist”, respectively. Further, on hMOR [4], the “functional character at MOR” value is recorded as “partial antagonist”. Moreover, the Emax is -4.05 ± 4.03% at hMOR [4] (read-out: MOR Emax ± SEM (% DAMGO), Table A1, data summary #1) and -4.05% on hMOR [4] (read-out: Emax, functional activity at MOR).
